Data published in patent US11912693B2, “Compounds for modulating S1P1 activity and methods of using the same” (TREVENA, INC., priority 2017, dated 2024).

How the values were obtained:
[1] = system: A2780 human ovarian carcinoma; test: A2780 human ovarian carcinoma xenograft tumor growth delay in athymic nude mice; conditions: 60-day study
Description: Female athymic nude mice (Crl:NU(NCr)-Foxnlnu, Charles River Laboratories) were implanted with A2780 human ovarian carcinoma cells to initiate tumor growth.
Each mouse received 1×10^7 cells (0.1 mL cell suspension) subcutaneously in the right flank, and tumors were monitored as their volumes approached the target range of 100 to 150 mm3. Fourteen days later, designated as Day 1 of the study, mice were sorted into six groups of ten each. […] Tumors were measured twice weekly for the study duration.
Starting on Day 1 of the study, six groups (n=10) of female athymic nude mice with established A2780 tumors were treated according to the following plan. Treatments were administered either by intravenous injection (i.v.) or oral gavage (p.o.) and were adjusted to the body weight of the individual animal. Group 1 received Vehicle 1, i.v., once every other day for five doses (qod×5) and Vehicle 2, p.o., once daily to the end of the study (qd to end), and served as the control group for efficacy analysis. Group 2, the paclitaxel monotherapy group, received paclitaxel i.v., qod×5 plus Vehicle 2, p.o., qd to end. Group 3, the ozanimod monotherapy group, received ozanimod p.o., qd to end plus Vehicle 1, i.v., qod×5. Combination Group 4 received ozanimod p.o., qd to end plus paclitaxel i.v., qod×5.
Animals were monitored individually, and each mouse was euthanized when its tumor reached the endpoint volume of 2000 mm3 or on the final day, whichever came first. The time to endpoint (TTE) was calculated for each mouse. Treatment outcome was determined from percent tumor growth delay (% TGD), defined as the percent increase in median TTE for treated versus control mice, with differences in TTE values between groups deemed statistically significant at P<0.05 using logrank survival analysis. Mice were also monitored for complete regression (CR) and partial regression (PR) responses. An animal with a CR at the end of the study was additionally classified as a tumor-free survivor (TFS). Treatment tolerability was assessed by body weight measurements and frequent observation for clinical signs of treatment-related side effects.

[2] = system: spinal nerve ligation peripheral neuropathy; test: Tactile allodynia and thermal hyperalgesia in spinal nerve ligation (SNL) peripheral neuropathy model; assay type: in vivo, Sprague Dawley rats
Description: A cohort of 48 male Sprague Dawley rats, weighing 225-250 g at arrival, was group housed under constant temperature, humidity and a 12-hour light-dark cycle. Following acclimation to the animal colony, the animals were tested for baseline withdrawal responses to mechanical allodynia and thermal hyperalgesia using the methods described in. Chaplan, S. R., Bach, […]., Chung, J. M. and Yaksh, T. L. Quantitative assessment of tactile allodynia in the rat paw. J. Neurosci. Methods 53: 55-63, 1994; Joris, J. L., Dubner, R. and Hargreaves, K. M. Opioid analgesia at Peripheral Sites: a Target for Opioids Released during Stress and Inflammation? Anesthesia and Analgesia 66(12), 1277-81, 1987; and Kim, S. H. and Chung, J. M. An experimental model of peripheral neuropathy produced by segmental spinal nerve ligation in the rat. Pain 50: 335-63, 1992. […] Thermal hyperalgesia was measured at 1 or 1.5 hr after dosing of test articles, vehicle, and reference compound via the specified route(s) on Day 21. […] The time was measured automatically when the paw was withdrawn away from the thermal stimulus. […] Mean thresholds and withdrawal latencies were analyzed via Two Way ANOVA followed by Dunnett's Multiple Comparison tests to SNL+VEH group with differences considered significant at p<0.05.

For `CCC1(CC)CC(=O)c2cc(-c3nc(-c4cccnc4)no3)ccc2O1` [Compound 103, 2,2-diethyl-6-[3-(pyridin-3-yl)-1,2,4-oxadiazol-5-yl]-3,4-dihydro-2H-1-benzopyran-4-one], the “percent tumor growth delay (% TGD), monotherapy” value ([1]; monotherapy vs control, paclitaxel i.v. qod×5, ozanimod or Compound 103 p.o. qd to end) was 15%, the study survivors ([1]; n=10 per group, animals surviving the study) was “One” and the “Active Doses in SNL Neuropathy Model (mg/kg) (p < 0.05 compared to SNL + VEH treated mice) MECHANICAL” value ([2]; mechanical allodynia, manual von Frey) was <100 mg/kg. For the same compound, the “Active Doses in SNL Neuropathy Model (mg/kg) (p < 0.05 compared to SNL + VEH treated mice) THERMAL” value ([2]; thermal hyperalgesia, paw withdrawal latency) was <100 mg/kg.
